# Assays:
# [1] = system: CV-B3 (CVB3-H3); type: cell-based, coxsackievirus B3; settings: for SI50 (CV-B3 in HeLa cells): SI50 = CC50/EC50
# [2] = system: EV-A71; assay: antiviral CPE assay, anti-EV-A71 in LLC cells; type: cell-based, enterovirus 71 (EV-A71); settings: SI50 = CC50/EC50
Structure (SMILES),antiviral activities against coxsackievirus B3 (CV-B3) [1],SI50 (CV-B3 in HeLa cells) [1],SI50 (EV-A71 in LLC cells) [2]
"O=C(Nc1ccc(F)cc1)c1cc(-c2cccs2)nc2c1cnn2C1CCCC1 [JX027, 1-Cyclopentyl-N-(4-fluorophenyl)-6-(thiophen-2-yl)-1H-pyrazolo[3,4-b]pyridine-4-carboxamide]",none of the above analogs demonstrated antiviral activities,–,–
"CC(C)n1ncc2c(C(=O)Nc3c(F)cccc3F)cc(-c3cccs3)nc21 [JX009, N-(2,6-Difluorophenyl)-1-isopropyl-6-(thiophen-2-yl)-1H-pyrazolo[3,4-b]pyridine-4-carboxamide]",–,SI50: >62.5,SI50: >58.8
"CC(C)n1ncc2c(C(=O)Nc3ccncn3)cc(-c3cccs3)nc21 [JX043, 1-Isopropyl-N-(pyrimidin-4-yl)-6-(thiophen-2-yl)-1H-pyrazolo[3,4-b]pyridine-4-carboxamide]",–,SI50: 33.3,SI50: 100.0
"CC(C)n1ncc2c(C(=O)Nc3cccc(F)c3F)cc(-c3cccs3)nc21 [JX019, N-(2,3-Difluorophenyl)-1-isopropyl-6-(thiophen-2-yl)-1H-pyrazolo[3,4-b]pyridine-4-carboxamide]",–,SI50: >74.1,SI50: 25.0
"CC(C)n1ncc2c(C(=O)Nc3ccncn3)cc(-c3ccsc3)nc21 [JX059, 1-Isopropyl-N-(pyrimidin-4-yl)-6-(thiophen-3-yl)-1H-pyrazolo[3,4-b]pyridine-4-carboxamide]",–,SI50: >166.7,SI50: >250.0
"CC(C)n1ncc2c(C(=O)Nc3ccccc3F)cc(-c3cccnc3)nc21 [JX005, N-(2-Fluorophenyl)-1-isopropyl-6-(pyridin-3-yl)-1H-pyrazolo[3,4-b]pyridine-4-carboxamide]",–,SI50: 5.4,–
"CC(C)n1ncc2c(C(=O)Nc3ccccc3S(N)(=O)=O)cc(-c3cccs3)nc21 [JX033, 1-Isopropyl-N-(2-sulfamoylphenyl)-6-(thiophen-2-yl)-1H-pyrazolo[3,4-b]pyridine-4-carboxamide]",–,SI50: 3.8,SI50: 10.0
"CC(C)n1ccc2c(C(=O)Nc3ccc(F)cc3)cc(-c3cccs3)nc21 [JX037, N-(4-Fluorophenyl)-1-isopropyl-6-(thiophen-2-yl)-1H-pyrrolo[2,3-b]pyridine-4-carboxamide]",–,SI50: 64.5,–
"O=C(Nc1ccc(F)cc1)c1cc(-c2cccs2)nc2c1cnn2C1CCCCCC1 [JX029, 1-Cycloheptyl-N-(4-fluorophenyl)-6-(thiophen-2-yl)-1H-pyrazolo[3,4-b]pyridine-4-carboxamide]",none of the above analogs demonstrated antiviral activities,–,–
"CC(C)n1ncc2c(C(=O)Nc3ccccc3F)cc(-c3cncs3)nc21 [JX010, N-(2-Fluorophenyl)-1-isopropyl-6-(thiazol-5-yl)-1H-pyrazolo[3,4-b]pyridine-4-carboxamide]",–,SI50: >60.6,SI50: 27.0
"CNS(=O)(=O)c1cccc(NC(=O)c2cc(-c3cccs3)nc3c2cnn3C(C)C)c1 [JX053, 1-Isopropyl-N-(3-(N-methylsulfamoyl)phenyl)-6-(thiophen-2-yl)-1H-pyrazolo[3,4-b]pyridine-4-carboxamide]",–,SI50: 24.0,SI50: 35.7
"CC(C)n1ncc2c(C(=O)Nc3ccc(F)cn3)cc(-c3cccs3)nc21 [JX075, N-(5-Fluoropyridin-2-yl)-1-isopropyl-6-(thiophen-2-yl)-1H-pyrazolo[3,4-b]pyridine-4-carboxamide]",–,SI50: 53.6,SI50: >166.7
"CC(C)n1ncc2c(C(=O)Nc3ncccn3)cc(-c3ccsc3)nc21 [JX058, 1-Isopropyl-N-(pyrimidin-2-yl)-6-(thiophen-3-yl)-1H-pyrazolo[3,4-b]pyridine-4-carboxamide]",–,SI50: 33.3,SI50: 41.7
"O=C(Nc1ccccc1F)c1cc(-c2cccs2)nc2c1cnn2CC(F)(F)F [JX022, N-(2-Fluorophenyl)-6-(thiophen-2-yl)-1-(2,2,2-trifluoroethyl)-1H-pyrazolo[3,4-b]pyridine-4-carboxamide]",none of the above analogs demonstrated antiviral activities,–,–
"CC(C)n1ncc2c(C(=O)Nc3ccccn3)cc(C3CC3)nc21 [JX071, 6-Cyclopropyl-1-isopropyl-N-(pyridin-2-yl)-1H-pyrazolo[3,4-b]pyridine-4-carboxamide]",–,SI50: 5.3,SI50: 5.3
"CC(C)n1ncc2c(C(=O)Nc3cc(F)ccc3F)cc(-c3cccs3)nc21 [JX018, N-(2,5-Difluorophenyl)-1-isopropyl-6-(thiophen-2-yl)-1H-pyrazolo[3,4-b]pyridine-4-carboxamide]",–,SI50: >74.1,SI50: 28.6
"CC(C)n1ncc2c(C(=O)Nc3ccc(F)cc3)cc(C3CC3)nc21 [JX038, 6-Cyclopropyl-N-(4-fluorophenyl)-1-isopropyl-1H-pyrazolo-[3,4-b]pyridine-4-carboxamide]",–,SI50: 3.0,SI50: 3.9

Structure (SMILES),antiviral activities against coxsackievirus B3 (CV-B3) [1],SI50 (CV-B3 in HeLa cells) [1],SI50 (EV-A71 in LLC cells) [2]
"CC(C)n1ncc2c(C(=O)Nc3ccccn3)cc(-c3ccccc3)nc21 [JX070, 1-Isopropyl-6-phenyl-N-(pyridin-2-yl)-1H-pyrazolo[3,4-b]-pyridine-4-carboxamide]",–,SI50: 11.8,SI50: 17.9
"CC(C)n1ncc2c(C(=O)Nc3ccc(F)c(S(N)(=O)=O)c3)cc(-c3cccs3)nc21 [JX069, N-(4-Fluoro-3-sulfamoylphenyl)-1-isopropyl-6-(thiophen-2-yl)-1H-pyrazolo[3,4-b]pyridine-4-carboxamide]",–,SI50: >181.8,SI50: 62.5
"CC(C)n1ncc2c(C(=O)Nc3ccccc3F)cc(-c3ccncc3)nc21 [JX003, N-(2-Fluorophenyl)-1-isopropyl-6-(pyridin-4-yl)-1H-pyrazolo[3,4-b]pyridine-4-carboxamide]",–,SI50: 7.4,–
"CC(C)n1ncc2c(C(=O)Nc3ccc(S(C)(=O)=O)cc3)cc(-c3cccs3)nc21 [JX047, 1-Isopropyl-N-(4-(methylsulfonyl)phenyl)-6-(thiophen-2-yl)-1H-pyrazolo[3,4-b]pyridine-4-carboxamide]",–,SI50: 200.0,SI50: 100.0
"CC(C)n1ncc2c(C(=O)Nc3ccc(F)c(F)c3)cc(-c3cccs3)nc21 [JX015, N-(3,4-Difluorophenyl)-1-isopropyl-6-(thiophen-2-yl)-1H-pyrazolo[3,4-b]pyridine-4-carboxamide]",–,SI50: >153.8,–
"CC(C)n1ncc2c(C(=O)Nc3c(F)cc(F)cc3F)cc(-c3cccs3)nc21 [JX020, 1-Isopropyl-6-(thiophen-2-yl)-N-(2,4,6-trifluorophenyl)-1H-pyrazolo[3,4-b]pyridine-4-carboxamide]",–,SI50: >111.1,SI50: >66.7
"CC(C)n1ccc2c(C(=O)Nc3ccccn3)cc(-c3cccs3)nc21 [JX072, 1-Isopropyl-N-(pyridin-2-yl)-6-(thiophen-2-yl)-1H-pyrrolo-[2,3-b]pyridine-4-carboxamide]",–,SI50: 8.5,SI50: >166.7
"CC(C)(C)n1ncc2c(C(=O)Nc3ccccc3F)cc(-c3cccs3)nc21 [JX013, 1-(tert-Butyl)-N-(2-fluorophenyl)-6-(thiophen-2-yl)-1H-pyrazolo[3,4-b]pyridine-4-carboxamide]",none of the above analogs demonstrated antiviral activities,–,–
"CC(C)n1ncc2c(C(=O)Nc3ccc(F)cc3)cc(-c3cccs3)nc21 [JX017, N-(4-Fluorophenyl)-1-isopropyl-6-(thiophen-2-yl)-1H-pyrazolo[3,4-b]pyridine-4-carboxamide]",–,SI50: >285.7,SI50: >222.2
"CC(C)n1ncc2c(C(=O)Nc3ccccn3)cc(-c3ccsc3)nc21 [JX057, 1-Isopropyl-N-(pyridin-2-yl)-6-(thiophen-3-yl)-1H-pyrazolo-[3,4-b]pyridine-4-carboxamide]",–,SI50: 15.0,SI50: 31.3
"O=C(Nc1ccccc1F)c1cc(-c2cccs2)nc2c1cnn2C1CCC1 [JX014, 1-Cyclobutyl-N-(2-fluorophenyl)-6-(thiophen-2-yl)-1H-pyrazolo[3,4-b]pyridine-4-carboxamide]",none of the above analogs demonstrated antiviral activities,–,–
"CC(C)n1ncc2c(C(=O)Nc3ccccc3F)cc(-c3ccccn3)nc21 [JX004, N-(2-Fluorophenyl)-1-isopropyl-6-(pyridin-2-yl)-1H-pyrazolo[3,4-b]pyridine-4-carboxamide]",–,SI50: >29.0,–
"O=C(Nc1ccc(F)cc1)c1cc(-c2cccs2)nc2[nH]ncc12 [JX032, N-(4-Fluorophenyl)-6-(thiophen-2-yl)-1H-pyrazolo[3,4-b]-pyridine-4-carboxamide]",none of the above analogs demonstrated antiviral activities,–,–
"O=C(Nc1ccccc1F)c1cc(-c2cccs2)nc2c1cnn2-c1ccccc1 [JX012, N-(2-Fluorophenyl)-1-phenyl-6-(thiophen-2-yl)-1H-pyrazolo[3,4-b]pyridine-4-carboxamide]",none of the above analogs demonstrated antiviral activities,–,–
"O=C(Nc1ccc(F)cc1)c1cc(-c2cccs2)nc2c1cnn2C1CCCCC1 [JX028, 1-Cyclohexyl-N-(4-fluorophenyl)-6-(thiophen-2-yl)-1H-pyrazolo[3,4-b]pyridine-4-carboxamide]",none of the above analogs demonstrated antiviral activities,–,–
"COc1ccc(Cn2ncc3c(C(=O)Nc4ccc(F)cc4)cc(-c4cccs4)nc32)cc1 [JX031, N-(4-Fluorophenyl)-1-(4-methoxybenzyl)-6-(thiophen-2-yl)-1H-pyrazolo[3,4-b]pyridine-4-carboxamide]",none of the above analogs demonstrated antiviral activities,–,–
